Literature values, collected in patent publication US9622967B2, “Highly stable compositions of orally active nucleotide analogues or orally active nucleotide analogue prodrugs” (Sigmapharm Laboratories, LLC, priority 2010, dated 2017).
Structures can show the parent of a compound that is named as a salt.

CC(C)OC(=O)OCOP(=O)(CO[C@H](C)Cn1cnc2c(N)ncnc21)OCOC(=O)OC(C)C [tenofovir disoproxil fumarate]
monoester mono(POC)-PMPA formed, weight percentage (3 days at 60° C. and 75% RH): 3.1%
monoester mono(POC)PMPA already formed soon after production (soon after production): up to 1.0 % w/w
